In ChEMBL document CHEMBL1201861, “Genomics of Drug Sensitity in Cancer screening data, Wellcome Trust Sanger Institute”:

Key:
Format in all cases: functional, cell-based
DG-75 = assay: cells; conditions: Homo sapiens;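 note: growth inhibition of DG-75 cells, read out with a cell viability assay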
Description: SANGER: Inhibition of human DG-75 cell growth in a cell viability assay.

BL-70 = assay: SANGER: Inhibition of human BL-70 cell growth in a cell viability assay.
MC-CAR = assay: cells; conditions: Homo sapiens;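 note: growth inhibition of the human MC-CAR cell line, read out by a cell viability assay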
Description: SANGER: Inhibition of human MC-CAR cell growth in a cell viability assay.

NCI-H187 = assay: cells; conditions: Homo sapiens;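 note: growth inhibition of NCI-H187 cells, read out as cell viability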
Description: SANGER: Inhibition of human NCI-H187 cell growth in a cell viability assay.

RPMI-6666 = assay: cells; conditions: Homo sapiens
Description: SANGER: Inhibition of human RPMI-6666 cell growth in a cell viability assay.

TE-15 = assay: cells; conditions: Homo sapiens;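 note: cell viability readout of growth inhibition in TE-15 cells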
Description: SANGER: Inhibition of human TE-15 cell growth in a cell viability assay.

TGW = assay: cells; conditions: Homo sapiens;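 note: growth inhibition of human TGW cells, read out with a cell viability assay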
Description: SANGER: Inhibition of human TGW cell growth in a cell viability assay.

PF-382 = assay: cells; conditions: Homo sapiens
Description: SANGER: Inhibition of human PF-382 cell growth in a cell viability assay.

REH = assay: cells; conditions: Homo sapiens;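 note: growth inhibition of REH cells determined with a cell viability read-out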
Description: SANGER: Inhibition of human REH cell growth in a cell viability assay.

NB17 = assay: cells; conditions: Homo sapiens;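 note: growth inhibition of NB17 cells, read out with a cell viability assay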
Description: SANGER: Inhibition of human NB17 cell growth in a cell viability assay.

MONO-MAC-6 = assay: cells; conditions: Homo sapiens;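 note: cell viability assay measuring growth inhibition of human MONO-MAC-6 cells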
Description: SANGER: Inhibition of human MONO-MAC-6 cell growth in a cell viability assay.

SU-DHL-1 = assay: SANGER: Inhibition of human SU-DHL-1 cell growth in a cell viability assay.
BOKU = assay: cells; conditions: Homo sapiens;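 note: growth inhibition of the human BOKU cell line, read out by a cell viability assay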
Description: SANGER: Inhibition of human BOKU cell growth in a cell viability assay.

OPM-2 = assay: cells; conditions: Homo sapiens;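 note: growth of OPM-2 cells measured with a viability assay, IC50 for suppression of proliferation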
Description: SANGER: Inhibition of human OPM-2 cell growth in a cell viability assay.

YT = assay: cells; conditions: Homo sapiens
Description: SANGER: Inhibition of human YT cell growth in a cell viability assay.

SCLC-21H = assay: cells; conditions: Homo sapiens;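 note: growth inhibition of cultured human SCLC-21H cells, read out with a cell viability assay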
Description: SANGER: Inhibition of human SCLC-21H cell growth in a cell viability assay.

D-392MG = assay: cells; conditions: Homo sapiens

Row | Structure (SMILES) | IC50 (DG-75) [nM] | IC50 (BL-70) [nM] | IC50 (MC-CAR) [nM] | IC50 (NCI-H187) [nM] | IC50 (RPMI-6666) [nM] | IC50 (TE-15) [nM] | IC50 (TGW) [nM] | IC50 (PF-382) [nM] | IC50 (REH) [nM] | IC50 (NB17) [nM] | IC50 (MONO-MAC-6) [nM] | IC50 (SU-DHL-1) [nM] | IC50 (BOKU) [nM] | IC50 (OPM-2) [nM] | IC50 (YT) [nM] | IC50 (SCLC-21H) [nM] | IC50 (D-392MG) [nM]
1 | CCNc1cc(N[C@H]2CC[C@@H](O)CC2)nc(Nc2ccc3c(ccn3Cc3ccccc3)c2)n1 | > 5120 | > 5120 | > 5120 | > 5120 | > 5120 | 5120 | > 5120 | > 5120 | > 5120 | > 5120 | > 5120 | > 5120 | > 5120 | > 5120 | > 5120 | > 5120 | –
2 | COc1cc(C)c(Sc2cnc(NC(=O)c3ccc(CNC(C)C(C)(C)C)cc3)s2)cc1C(=O)N1CCN(C(C)=O)CC1 (configuration not stated) | > 10200 | > 10200 | > 10200 | > 10200 | > 10200 | > 10200 | > 10200 | > 10200 | > 10200 | 8920 | 6670 | > 10200 | > 10200 | 8910 | > 10200 | > 10200 | –
3 | Cc1ccc(NC(=O)c2cccc(C(C)(C)C#N)c2)cc1Nc1ccc2ncn(C)c(=O)c2c1 | > 4000 | 2860 | > 4000 | > 4000 | > 4000 | > 4000 | > 4000 | 3050 | > 4000 | > 4000 | > 4000 | 3530 | – | 3030 | > 4000 | > 4000 | 356
4 | Cc1n[nH]c2ccc(-c3cncc(OC[C@@H](N)Cc4c[nH]c5ccccc45)c3)cc12 [A-443654] | 546 | 57 | > 1020 | 464 | 152 | 59.1 | 569 | 638 | > 1020 | 112 | 77.2 | 797 | > 1020 | 314 | > 1020 | > 1020 | –
5 | Cc1nc(Nc2ncc(C(=O)Nc3c(C)cccc3Cl)s2)cc(N2CCN(CCO)CC2)n1 [DASATINIB] | > 1280 | < 5 | > 1280 | > 1280 | > 1280 | 5.89 | > 1280 | 177 | > 1280 | > 1280 | > 1280 | > 1280 | 491 | > 1280 | > 1280 | > 1280 | –
6 | CCn1c(-c2nonc2N)nc2cnc(Oc3cccc(NC(=O)c4ccc(OCCN5CCOCC5)cc4)c3)cc21 [GSK-269962A] | > 2500 | > 2500 | > 2500 | > 2500 | > 2500 | > 2500 | > 2500 | > 2500 | > 2500 | > 2500 | > 2500 | > 2500 | – | > 2500 | > 2500 | > 2500 | 1430
7 | Cc1[nH]c(/C=C2\C(=O)Nc3ccc(S(=O)(=O)Cc4c(Cl)cccc4Cl)cc32)c(C)c1C(=O)N1CCC[C@@H]1CN1CCCC1 [PHA-665752] | > 2000 | > 2000 | > 2000 | > 2000 | > 2000 | > 2000 | > 2000 | > 2000 | > 2000 | > 2000 | > 2000 | > 2000 | > 2000 | > 2000 | > 2000 | > 2000 | –
